Measurements: ChEMBL document CHEMBL5550101, “Inhibition of cancer cells by Quinoline-Based compounds: A review with mechanistic insights” (Bioorg Med Chem, 2024)
Values belong to the compound of their own block, whether it stands above or below them.

How the values were obtained:
[1] = biological target: Hepatocyte growth factor receptor (Homo sapiens, UniProt P08581); experiment: Inhibition of c-Met (unknown origin) by mobility shift assay
[2] = biological target: Platelet-derived growth factor receptor beta (Homo sapiens, UniProt P09619); experiment: Inhibition of PDGFRbeta (unknown origin)
Chain of Platelet-derived growth factor receptor beta (P09619 whole entry): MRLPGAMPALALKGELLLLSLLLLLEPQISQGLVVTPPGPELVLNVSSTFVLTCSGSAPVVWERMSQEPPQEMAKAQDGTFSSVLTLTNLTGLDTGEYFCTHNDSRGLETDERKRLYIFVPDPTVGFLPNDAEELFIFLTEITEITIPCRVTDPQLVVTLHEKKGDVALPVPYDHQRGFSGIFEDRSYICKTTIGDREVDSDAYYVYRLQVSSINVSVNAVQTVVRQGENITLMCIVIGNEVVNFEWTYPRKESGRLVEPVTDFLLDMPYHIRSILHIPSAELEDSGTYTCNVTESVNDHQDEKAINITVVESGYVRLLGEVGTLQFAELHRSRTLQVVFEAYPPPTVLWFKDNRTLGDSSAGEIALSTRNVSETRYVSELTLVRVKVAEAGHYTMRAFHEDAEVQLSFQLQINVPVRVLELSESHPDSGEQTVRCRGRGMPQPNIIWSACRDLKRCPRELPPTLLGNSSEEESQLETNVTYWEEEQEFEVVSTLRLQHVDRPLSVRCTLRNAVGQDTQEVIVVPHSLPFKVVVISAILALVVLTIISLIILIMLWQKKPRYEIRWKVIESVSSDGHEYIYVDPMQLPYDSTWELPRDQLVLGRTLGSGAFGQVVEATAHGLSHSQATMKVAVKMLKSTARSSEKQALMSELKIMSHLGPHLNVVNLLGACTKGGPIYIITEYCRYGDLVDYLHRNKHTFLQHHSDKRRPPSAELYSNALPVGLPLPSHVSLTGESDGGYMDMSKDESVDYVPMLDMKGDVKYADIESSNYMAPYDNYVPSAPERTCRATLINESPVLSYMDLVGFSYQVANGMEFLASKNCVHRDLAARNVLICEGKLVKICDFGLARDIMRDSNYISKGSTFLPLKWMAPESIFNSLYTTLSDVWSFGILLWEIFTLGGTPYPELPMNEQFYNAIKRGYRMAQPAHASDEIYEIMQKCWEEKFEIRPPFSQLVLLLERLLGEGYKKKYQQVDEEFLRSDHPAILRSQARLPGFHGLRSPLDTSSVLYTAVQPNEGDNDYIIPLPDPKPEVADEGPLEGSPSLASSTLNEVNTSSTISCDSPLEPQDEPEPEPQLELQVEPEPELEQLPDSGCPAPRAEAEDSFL

[3] = test system: SR; experiment: Cytotoxicity against human SR cells assessed as cell growth inhibition by measuring lethal concentration by SRB assay; format: functional; settings: read-out: LC50 (the source's name)
[4] = test system: A549; experiment: Cytotoxicity against human A549 cells assessed as cell growth inhibition by measuring lethal concentration by SRB assay; format: functional; settings: read-out: LC50 (the source's name)
[5] = test system: MCF7; experiment: Cytotoxicity against human MCF7 cells assessed as cell growth inhibition by measuring lethal concentration by SRB assay; format: functional
[6] = test system: PC-3; experiment: Cytotoxicity against human PC-3 cells assessed as cell growth inhibition by measuring lethal concentration by SRB assay; format: functional; settings: read-out: LC50 (the source's name)
[7] = test system: A498; experiment: Cytotoxicity against human A498 cells assessed as cell growth inhibition by measuring lethal concentration by SRB assay; format: functional
[8] = test system: OVCAR-3; experiment: Cytotoxicity against human OVCAR-3 cells assessed as cell growth inhibition by measuring lethal concentration by SRB assay; format: functional
[9] = test system: M14; experiment: Cytotoxicity against human M14 cells assessed as cell growth inhibition by measuring lethal concentration by SRB assay; format: functional
[10] = test system: MCF7; experiment: Cytotoxicity against human MCF7 cells assessed as reduction in cell growth incubated for 72 hrs by SRB assay; format: functional, cell-based; settings: MCF7, 72 h
[11] = test system: MCF7; experiment: Antiproliferative activity against human MCF7 cells assessed as reduction in cell growth incubated for 48 hrs by SRB assay; format: functional, cell-based; settings: MCF7, 48 h
[12] = test system: MCF7; experiment: Cytotoxicity against human MCF7 cells assessed as reduction in cell growth measured for 48 hrs by SRB assay; format: functional, cell-based; settings: MCF7, 48 h
[13] = biological target: Epidermal growth factor receptor (Homo sapiens, UniProt P00533); experiment: Inhibition of EGFR (unknown origin)
Chain of Epidermal growth factor receptor (P00533 whole entry): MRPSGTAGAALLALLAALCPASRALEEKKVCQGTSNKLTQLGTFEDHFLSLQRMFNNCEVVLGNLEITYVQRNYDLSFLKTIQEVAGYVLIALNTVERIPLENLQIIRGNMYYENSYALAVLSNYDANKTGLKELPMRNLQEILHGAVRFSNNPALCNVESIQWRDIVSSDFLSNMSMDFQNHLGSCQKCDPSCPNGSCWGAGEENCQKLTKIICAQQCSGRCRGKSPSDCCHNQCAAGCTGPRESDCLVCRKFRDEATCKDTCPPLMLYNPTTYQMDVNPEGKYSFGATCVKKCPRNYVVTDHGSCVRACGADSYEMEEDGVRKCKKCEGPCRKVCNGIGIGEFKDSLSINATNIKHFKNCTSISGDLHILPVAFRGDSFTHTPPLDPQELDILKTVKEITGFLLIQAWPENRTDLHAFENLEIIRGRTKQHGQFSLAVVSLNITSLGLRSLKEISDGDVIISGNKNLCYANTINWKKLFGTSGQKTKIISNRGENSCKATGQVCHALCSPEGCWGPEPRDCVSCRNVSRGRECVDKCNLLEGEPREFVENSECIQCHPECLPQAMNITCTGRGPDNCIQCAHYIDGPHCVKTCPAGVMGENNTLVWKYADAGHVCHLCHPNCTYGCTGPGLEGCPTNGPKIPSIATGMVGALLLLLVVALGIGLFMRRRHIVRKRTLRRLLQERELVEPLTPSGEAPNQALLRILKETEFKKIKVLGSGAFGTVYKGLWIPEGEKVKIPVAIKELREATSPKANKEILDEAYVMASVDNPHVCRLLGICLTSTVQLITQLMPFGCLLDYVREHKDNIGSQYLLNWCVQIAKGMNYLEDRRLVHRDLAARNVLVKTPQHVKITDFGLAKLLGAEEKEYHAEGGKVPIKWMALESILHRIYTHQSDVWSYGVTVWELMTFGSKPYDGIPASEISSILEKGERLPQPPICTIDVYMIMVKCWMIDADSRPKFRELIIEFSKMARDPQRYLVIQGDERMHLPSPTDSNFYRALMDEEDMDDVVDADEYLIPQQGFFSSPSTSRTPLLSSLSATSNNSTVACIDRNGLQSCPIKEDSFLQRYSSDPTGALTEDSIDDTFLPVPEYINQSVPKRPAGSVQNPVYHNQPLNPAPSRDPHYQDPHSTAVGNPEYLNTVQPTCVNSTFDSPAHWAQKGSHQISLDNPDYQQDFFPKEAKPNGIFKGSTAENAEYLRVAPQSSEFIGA

[14] = test system: HCT-116; experiment: Cytotoxicity against human HCT-116 cells assessed as cell growth inhibition by measuring lethal concentration by SRB assay; format: functional
[15] = test system: A549; experiment: Antiproliferative activity against human A549 cells assessed as reduction in cell growth incubated for 48 hrs by MTT assay; format: functional, cell-based; settings: A549, 48 h

Chain of Hepatocyte growth factor receptor (P08581 whole entry): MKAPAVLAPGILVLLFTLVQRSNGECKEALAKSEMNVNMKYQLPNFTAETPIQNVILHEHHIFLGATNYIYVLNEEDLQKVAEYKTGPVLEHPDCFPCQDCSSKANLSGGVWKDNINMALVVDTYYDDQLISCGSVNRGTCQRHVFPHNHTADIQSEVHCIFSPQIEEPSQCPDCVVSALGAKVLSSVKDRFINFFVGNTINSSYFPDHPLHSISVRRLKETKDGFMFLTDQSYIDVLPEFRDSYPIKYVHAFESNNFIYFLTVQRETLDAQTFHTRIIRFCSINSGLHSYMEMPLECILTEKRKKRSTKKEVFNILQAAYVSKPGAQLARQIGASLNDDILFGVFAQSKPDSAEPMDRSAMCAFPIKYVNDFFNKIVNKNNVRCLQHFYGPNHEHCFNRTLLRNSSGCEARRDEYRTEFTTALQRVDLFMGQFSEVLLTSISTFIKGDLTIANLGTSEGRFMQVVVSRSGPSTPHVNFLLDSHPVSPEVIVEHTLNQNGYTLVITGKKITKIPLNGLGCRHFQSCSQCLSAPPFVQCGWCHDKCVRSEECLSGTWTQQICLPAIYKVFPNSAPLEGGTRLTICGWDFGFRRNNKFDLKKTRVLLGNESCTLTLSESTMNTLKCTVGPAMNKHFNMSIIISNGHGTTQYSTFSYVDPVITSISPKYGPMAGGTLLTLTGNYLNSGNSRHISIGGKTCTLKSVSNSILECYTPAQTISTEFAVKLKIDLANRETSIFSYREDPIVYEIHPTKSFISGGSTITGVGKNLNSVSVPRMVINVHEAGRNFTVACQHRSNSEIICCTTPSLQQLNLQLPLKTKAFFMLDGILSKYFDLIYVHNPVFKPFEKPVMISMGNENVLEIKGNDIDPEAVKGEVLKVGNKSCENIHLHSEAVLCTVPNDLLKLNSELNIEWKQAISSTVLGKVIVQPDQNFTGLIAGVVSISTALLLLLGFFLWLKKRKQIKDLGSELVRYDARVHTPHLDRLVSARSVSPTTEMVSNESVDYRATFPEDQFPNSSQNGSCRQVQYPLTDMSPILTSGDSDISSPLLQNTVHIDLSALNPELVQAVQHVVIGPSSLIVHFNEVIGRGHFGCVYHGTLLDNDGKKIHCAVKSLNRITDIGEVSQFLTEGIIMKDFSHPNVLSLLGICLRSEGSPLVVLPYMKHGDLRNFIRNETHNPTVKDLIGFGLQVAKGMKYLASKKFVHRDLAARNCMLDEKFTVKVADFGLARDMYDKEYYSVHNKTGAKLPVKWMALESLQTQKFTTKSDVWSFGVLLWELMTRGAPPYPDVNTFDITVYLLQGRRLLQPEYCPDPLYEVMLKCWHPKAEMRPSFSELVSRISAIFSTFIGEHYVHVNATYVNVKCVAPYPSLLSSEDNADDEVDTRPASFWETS

IC50 [1]: 0.004 µM
SMILES: COc1ccc2c(Oc3ccc(CC(=O)Nc4cn(C)nc4C)c(OC)c3)ccnc2c1

IC50 [2]: 5 µM
SMILES: COc1ccc(-c2cc3cc(OC)ccc3nc2Nc2ccc(NC(=O)CN3CCN(C)CC3)cc2)cc1

IC50 [2]: 5 µM
SMILES: COc1ccc(-c2cc3ccc(OC)cc3nc2Nc2ccc(NC(=O)CN3CCN(C)CC3)cc2)cc1

IC50 [1]: 0.17 µM
SMILES: CCN(C(=O)c1cc(C(C)C)c(O)cc1O)c1cnc2ccccc2c1

SMILES: CCCCCCOc1ccc(/C=N/Nc2cc(C)nc3ccc(Cl)cc23)cc1
CC50 [3]: 8.11 µM
CC50 [4]: 7.22 µM
LC50 [5]: 6.97 µM
CC50 [6]: 5.83 µM
LC50 [7]: 6.55 µM
LC50 [8]: 6.83 µM
LC50 [9]: 6.26 µM

SMILES: N#Cc1c(-c2ccc3ncc(C(N)=O)c(Nc4cccc(Br)c4)c3c2)csc1N
IC50 [10]: 50.6 µM

IC50 [2]: 1.83 µM
SMILES: CCCOc1ccc(/C=N/Nc2ccnc3ccc(Br)cc23)cc1

SMILES: Cc1ccc(Nc2c(C(N)=O)cnc3ccc(C(=O)/C=C/c4ccc(-c5ccc(Cl)cc5)o4)cc23)cc1
IC50 [10]: 3.35 µM

IC50 [11]: 0.41 µM
SMILES: COc1ccc2nc(Cl)cc(C3CC(c4ccc(C)cc4)=NN3c3nc(C)c(NNc4ccccc4)s3)c2c1 (stereo not drawn)

IC50 [13]: 0.13 µM
SMILES: COc1ccc2c(c1)CCc1c-2[nH]c(=O)c(C#N)c1-c1ccc(OC)c(OC)c1
IC50 [12]: 13.7 µM

IC50 [11]: 0.32 µM
SMILES: CCOC(=O)c1sc(N2N=C(c3ccc(C)cc3)CC2c2cc(Cl)nc3ccc(OC)cc23)nc1C (stereo not drawn)

SMILES: CC(=O)c1ccc2ncc(C(N)=O)c(Nc3ccc(OCc4ccccc4)cc3)c2c1
IC50 [10]: 10.8 µM

SMILES: CCCCCOc1ccc(/C=N/Nc2cc(C)nc3ccc(Br)cc23)cc1
CC50 [3]: 21.3 µM
CC50 [4]: 7.15 µM
LC50 [14]: 6.35 µM
LC50 [5]: 7.93 µM
CC50 [6]: 5.88 µM
LC50 [7]: 6.02 µM
LC50 [8]: 5.92 µM
LC50 [9]: 6.64 µM

IC50 [13]: 0.13 µM
SMILES: COc1ccc2c(c1)CCc1c-2nc(N)c(C#N)c1-c1ccc(OC)c(OC)c1
IC50 [12]: 14.5 µM

IC50 [2]: 1.13 µM
SMILES: CN1c2ccc(F)cc2SC1C(=O)Nc1cccc2c1N(Cc1ccc(OC3CCNCC3)cc1)CCC2 (stereo not drawn)

IC50 [11]: 1.18 µM
SMILES: COc1ccc2nc(Cl)cc(C3CC(c4ccc(C)cc4)=NN3c3nc(-c4ccc(Cl)cc4)cs3)c2c1 (stereo not drawn)

IC50 [11]: 0.36 µM
SMILES: COc1ccc2nc(Cl)cc(C3CC(c4ccc(C)cc4)=NN3c3nc(C)c(C(=O)Nc4ccccc4)s3)c2c1 (stereo not drawn)

IC50 [15]: 0.06 µM
SMILES: O=C(Cc1ccc([N+](=O)[O-])cc1)Nc1ccc2c(c1)CCCN2C(=O)c1ccc(Cl)cc1

IC50 [15]: 0.65 µM
SMILES: O=C(Cc1ccc(Br)cc1)Nc1ccc2c(c1)CCCN2C(=O)c1ccc(Cl)cc1

IC50 [2]: 1.86 µM
SMILES: CCOc1ccc(/C=N/Nc2ccnc3ccc(Br)cc23)cc1

IC50 [15]: 0.97 µM
SMILES: O=C(Cc1ccccc1)Nc1ccc2c(c1)CCCN2C(=O)c1ccc(Cl)cc1

IC50 [2]: 2.2 µM
SMILES: CCCCOc1ccc(/C=N/Nc2ccnc3ccc(Br)cc23)cc1

IC50 [15]: 3.2 µM
SMILES: O=C(Nc1ccc2c(c1)CCCN2C(=O)c1ccc(Cl)cc1)c1cc(C(F)(F)F)cc(C(F)(F)F)c1

IC50 [11]: 0.21 µM
SMILES: COc1ccc2nc(O)c(C3CC(c4ccc(C)cc4)=NN3C(C)=O)cc2c1 (stereo not drawn)

IC50 [13]: 0.13 µM
SMILES: COc1ccc2c(c1)CCc1c-2[nH]c(=O)c(C#N)c1-c1ccc(OC)cc1OC
IC50 [12]: 7.21 µM

IC50 [13]: 0.13 µM
SMILES: COc1ccc2c(c1)CCc1c-2nc(N)c(C#N)c1-c1ccc(OC)cc1OC
IC50 [12]: 17.6 µM

IC50 [15]: 0.15 µM
SMILES: CCOC(=O)C(=O)Nc1ccc2c(c1)CCCN2C(=O)c1ccc(Cl)cc1

SMILES: CCCCCCOc1ccc(/C=N/Nc2cc(C)nc3ccc(Br)cc23)cc1
CC50 [3]: > 100 µM
CC50 [4]: 6.61 µM
LC50 [14]: 4.67 µM
LC50 [5]: 6.84 µM
CC50 [6]: 5.84 µM
LC50 [7]: 6.03 µM
LC50 [8]: 6.85 µM
LC50 [9]: 6.67 µM

SMILES: CCCCCOc1ccc(/C=N/Nc2cc(C)nc3ccc(Cl)cc23)cc1
CC50 [3]: 4.2 µM
CC50 [4]: 6.52 µM
LC50 [14]: 5.02 µM
LC50 [5]: 7.04 µM
CC50 [6]: 5.98 µM
LC50 [7]: 5.13 µM
LC50 [8]: 6.51 µM
LC50 [9]: 5.91 µM

SMILES: CCCCOc1ccc(/C=N/Nc2cc(C)nc3ccc(Cl)cc23)cc1
CC50 [3]: > 100 µM
CC50 [4]: 6.35 µM
LC50 [14]: > 100 µM
LC50 [5]: 6.87 µM
CC50 [6]: 6.55 µM
LC50 [7]: 5.67 µM
LC50 [8]: 7.04 µM
LC50 [9]: 8.07 µM

IC50 [15]: 0.22 µM
SMILES: Nc1ccc(CC(=O)Nc2ccc3c(c2)CCCN3C(=O)c2ccc(Cl)cc2)cc1

IC50 [11]: 0.21 µM
SMILES: COc1ccc2nc(Cl)cc(C3CC(c4ccc(C)cc4)=NN3c3nc(-c4ccccc4)cs3)c2c1 (stereo not drawn)

SMILES: CCCCOc1ccc(/C=N/Nc2cc(C)nc3ccc(Br)cc23)cc1
CC50 [3]: > 100 µM
CC50 [4]: 6.61 µM
LC50 [14]: 6.17 µM
LC50 [5]: 7.37 µM
CC50 [6]: 6.49 µM
LC50 [7]: 5.47 µM
LC50 [8]: 7.18 µM
LC50 [9]: 5.88 µM

SMILES: CCOc1ccc(/C=N/Nc2cc(C)nc3ccc(Cl)cc23)cc1
CC50 [3]: 15.5 µM
CC50 [4]: 6.94 µM
LC50 [5]: 6.6 µM
CC50 [6]: 6.54 µM
LC50 [7]: 7.01 µM
LC50 [8]: 6.36 µM
LC50 [9]: 5.55 µM

SMILES: CCCOc1ccc(/C=N/Nc2cc(C)nc3ccc(Cl)cc23)cc1
CC50 [3]: 38.6 µM
CC50 [4]: 6.49 µM
LC50 [14]: 6.48 µM
LC50 [5]: 6.9 µM
CC50 [6]: 6.39 µM
LC50 [7]: 5.79 µM
LC50 [8]: 6.44 µM
LC50 [9]: 6.17 µM

SMILES: COc1ccc(-c2c(C#N)c(N)nc3c2CCc2cc(OC)ccc2-3)cc1
IC50 [12]: 12 µM

IC50 [2]: 1.76 µM
SMILES: CCCCOc1ccc(/C=N/Nc2ccnc3ccc(Cl)cc23)cc1

IC50 [1]: 0.003 µM
SMILES: CCc1[nH]nc(NC(=O)Cc2ccc(Oc3ccnc4cc(OC)ccc34)cc2OC)c1C

IC50 [13]: 0.13 µM
SMILES: COc1ccc(-c2c3c([nH]c(=O)c2C#N)-c2ccc(OC)cc2CC3)cc1
IC50 [12]: 18.1 µM
